This assay deals with T1, COX-2 (Homo sapiens, UniProt P35354).
T1 construct: purchased
T1 sequence (P35354 18-604): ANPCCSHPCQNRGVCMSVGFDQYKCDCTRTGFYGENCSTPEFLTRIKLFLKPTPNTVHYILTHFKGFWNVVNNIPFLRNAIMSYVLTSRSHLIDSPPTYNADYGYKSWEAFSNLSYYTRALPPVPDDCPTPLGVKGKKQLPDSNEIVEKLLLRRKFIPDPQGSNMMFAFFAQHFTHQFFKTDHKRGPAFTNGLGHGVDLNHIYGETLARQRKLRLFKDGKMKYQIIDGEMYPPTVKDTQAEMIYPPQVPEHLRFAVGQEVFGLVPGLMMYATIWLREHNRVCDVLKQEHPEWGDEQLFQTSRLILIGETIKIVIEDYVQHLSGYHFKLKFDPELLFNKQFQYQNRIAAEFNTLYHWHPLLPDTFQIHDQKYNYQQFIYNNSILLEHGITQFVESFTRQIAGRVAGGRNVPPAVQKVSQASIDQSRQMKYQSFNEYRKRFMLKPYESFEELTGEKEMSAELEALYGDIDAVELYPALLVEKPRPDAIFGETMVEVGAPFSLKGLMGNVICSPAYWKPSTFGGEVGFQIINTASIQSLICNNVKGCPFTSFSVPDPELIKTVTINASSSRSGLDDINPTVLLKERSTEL
The assay can be described thus: COX-2 enzyme assay with oxygen monitoring system (Example 3). It counts as biochemical. To be noted: for Specific Activity: the higher this number the more selective for COX-2 as opposed to COX-1.

Data on two molecules can be found in US8337914B2, “Dietary food supplement containing natural cyclooxygenase inhibitors and methods for inhibiting pain and inflammation” (Access Business Group International LLC, priority 1999, dated 2012).

Molecules are shown by their SMILES.

Procedure: The present example describes an enzyme assay method using an oxygen monitoring system to monitor the COX inhibitory activity of fruit extracts. In this assay the changes of concentration of dissolved oxygen are constantly monitored by an oxygen electrode in a Dissolved Oxygen Measuring System (Instech, Plymouth Meeting, Pa.). The output is recorded by a linear Recorder (Fisher Scientific, Pittsburgh, Pa.).
Each day a fresh potassium chloride solution (15 g/100 ml distilled water) was made and the electrode was set up according to manufacturers instructions. The chamber is kept at 37° C.
A prostaglandin assay kit was used and the assay set up in a manner similar to that described for the COX-1 assay. Briefly, 50 μl phenol was added to 20 ml 100 mM Tris buffer, warmed to 37° C. for 1 minute (working buffer). To a tube of hematin 0.9 ml of the working buffer was added. 50 μl 0.1NaOH was added to an arachidonic acid vial and vortexed. 0.43 ml water was added and the solution mixed again. Samples of extracts were weighed and dissolved in the working buffer to a final concentration of 0.1 g/ml. Buffer, samples or diluted samples are used in the enzyme assays directly.
The enzyme assay is performed according to the manufacturer's instruction, which should be well known to those of skill in the art. Briefly, 600 μl of working buffer were drawn into the chamber from the overflow outlet with the injection valve close, and the main outlet connected to a syringe in the right orientation. The stir bar was set a speed of 3 k/min. At 1 minute intervals, 5 ul enzyme, 15 ul hematin solution, 6 ul buffer or sample or diluted sample and 8 ul arachidonic acid solution was injected. The oxygen concentration changes were transformed into mV and recorded.

With `CC(=O)Oc1ccccc1C(=O)O` [Aspirin], the “Specific Activity” value was found to be 0.5. For the molecule `O=c1c(O)c(-c2ccc(O)c(O)c2)oc2cc(O)cc(O)c12` [Quercetin standard, Quercetin], the “Specific Activity” value was 6.3. For the setting “COX-2 potency relative to Celebrex”, the “Potency compared to Celebrex” value stood at 78%.
